Laboratory results as given in patent publication US20110243958A1, “ANTIMICROBIAL AGENTS THAT TARGET BACTERIAL VKOR” (priority 2008, published 2011).
Values after ≈ are worked out from the molar mass of the structure shown. “Also recorded” adds a separate entry of the source.

How the values were obtained:
[1] = target: T1, M. tuberculosis VKOR (MtbVKOR) (Mycobacterium tuberculosis, UniProt I6X5W1); type: cell-based
T1 sequence (I6X5W1 1-210): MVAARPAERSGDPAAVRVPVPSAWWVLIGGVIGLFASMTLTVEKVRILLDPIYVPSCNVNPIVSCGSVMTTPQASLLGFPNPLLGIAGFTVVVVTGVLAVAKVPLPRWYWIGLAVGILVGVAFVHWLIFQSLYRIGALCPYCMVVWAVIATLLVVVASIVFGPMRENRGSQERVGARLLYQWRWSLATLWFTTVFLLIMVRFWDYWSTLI

[2] = test system: M. smegmatis; test: microbe, parasite or virus in culture; type: cell-based, Mycobacterium smegmatis; settings: for growth of M. smegmatis culture: addition to culture
[3] = target: T1, M. tuberculosis VKOR (MtbVKOR); type: cell-based; remark: listed apart in the source
[4] = test system: some species of mycobacteria; settings: cited from earlier work
[5] = in animals; cited from earlier work

CC(=O)CC(c1ccccc1)c1c(O)c2ccccc2oc1=O (stereo not drawn) [warfarin]
disulfide bond formation / VKOR activity [1]: inhibit the tuberculosis VKOR activity; also recorded: inhibit disulfide bond formation | levels necessary to inhibit VKOR activity in E. coli [1]: high (millimolar concs.) | levels necessary to inhibit growth in Msmeg [2]: high (millimolar concs.) | MIC ([2]; Mycolicibacterium smegmatis, M. smegmatis grown in Middlebrook 7H9 medium (defined medium), alamar blue assay, read-out: minimal inhibitory concentration): 4.5 mM (≈ 1390 µg/mL) | growth of M. smegmatis culture [2]: caused inhibition of growth | activity of β-galactosidase (increase indicates inhibition of disulfide bond formation) [3]: significantly increased

CC(=O)CC(c1ccccc1)c1c(O)c2ccccc2oc1=O (stereo not drawn) [sodium warfarin]
growth of M. smegmatis culture [2]: inhibits growth

CC(C)=CCC/C(C)=C/CC/C(C)=C/Cc1c(O)c2ccccc2oc1=O [ferulenol]
growth of mycobacteria [4]: inhibit the growth | anti-coagulant properties [5]: has anti-coagulant properties
